{"source": "ChEMBL document CHEMBL6096661", "about": "“Synthesis, biological evaluation and mechanism study of a novel indole-pyridine chalcone derivative as antiproliferative agent against tumor cells through dual targeting tubulin and HK2” (Eur J Med Chem, 2025)", "key": {"HCT-116": {"tested_on": "HCT-116", "experiment": "Antiproliferative activity against human HCT-116 cells assessed as inhibition of cell growth incubated for 48 hrs by CCK-8 assay", "assay_type": "functional, cell-based", "conditions": "HCT-116, 48 h"}, "MDA-MB-231 [1]": {"tested_on": "MDA-MB-231", "experiment": "Induction of apoptosis in human MDA-MB-231 cells assessed as fragmented bright nuclei at 0.5 to 2 uM incubated for 24 hrs by Hoechst 33342 staining based fluorescence microscopic analysis", "assay_type": "functional, cell-based", "conditions": "dose 0.5-2 µM"}, "LoVo [2]": {"tested_on": "LoVo", "experiment": "Antiproliferative activity against human LoVo cells assessed as inhibition of cell proliferation incubated for 3 days by CCK-8 assay", "assay_type": "functional, cell-based", "conditions": "72 h"}, "MDA-MB-231 [3]": {"tested_on": "MDA-MB-231", "experiment": "Induction of apoptosis in human MDA-MB-231 cells assessed as increase in total apoptotic cells at 0.5 to 2 uM by annexin-V/PI double staining based flow cytometric analysis", "assay_type": "functional, cell-based", "conditions": "dose 0.5-2 µM"}, "ASPC1": {"tested_on": "ASPC1", "experiment": "Antiproliferative activity against human ASPC1 cells assessed as inhibition of cell growth incubated for 48 hrs by CCK-8 assay", "assay_type": "functional, cell-based", "conditions": "ASPC1, 48 h"}, "MDA-MB-231 [4]": {"tested_on": "MDA-MB-231", "experiment": "Induction of cell cycle arrest in human MDA-MB-231 cells assessed as decreased proportion of cells at G1 phase at 0.5 to 2 uM by flow cytometric analysis", "assay_type": "functional, cell-based", "conditions": "dose 0.5-2 µM"}, "MDA-MB-231 [5]": {"tested_on": "MDA-MB-231", "experiment": "Induction of morphological changes in human MDA-MB-231 assessed as loss of adhesion properties at 0.5 to 2 uM incubated for 48 hrs by microscopic analysis", "assay_type": "functional, cell-based", "conditions": "dose 0.5-2 µM"}, "SW480": {"tested_on": "SW480", "experiment": "Antiproliferative activity against human SW480 cells assessed as inhibition of cell growth incubated for 48 hrs by CCK-8 assay", "assay_type": "functional, cell-based", "conditions": "SW480, 48 h"}, "MDA-MB-231 [6]": {"tested_on": "MDA-MB-231", "experiment": "Induction of ROS generation in human MDA-MB-231 cells assessed as increase in green fluorescence at 0.5 uM incubated for 24 hrs by DCFH-DA staining based flow cytometric analysis (reference value: 62.3 %)", "assay_type": "functional"}, "Hexokinase-2": {"molecular_target": "T1, Hexokinase-2 (Homo sapiens, UniProt P52789)", "T1 sequence (P52789 whole entry)": "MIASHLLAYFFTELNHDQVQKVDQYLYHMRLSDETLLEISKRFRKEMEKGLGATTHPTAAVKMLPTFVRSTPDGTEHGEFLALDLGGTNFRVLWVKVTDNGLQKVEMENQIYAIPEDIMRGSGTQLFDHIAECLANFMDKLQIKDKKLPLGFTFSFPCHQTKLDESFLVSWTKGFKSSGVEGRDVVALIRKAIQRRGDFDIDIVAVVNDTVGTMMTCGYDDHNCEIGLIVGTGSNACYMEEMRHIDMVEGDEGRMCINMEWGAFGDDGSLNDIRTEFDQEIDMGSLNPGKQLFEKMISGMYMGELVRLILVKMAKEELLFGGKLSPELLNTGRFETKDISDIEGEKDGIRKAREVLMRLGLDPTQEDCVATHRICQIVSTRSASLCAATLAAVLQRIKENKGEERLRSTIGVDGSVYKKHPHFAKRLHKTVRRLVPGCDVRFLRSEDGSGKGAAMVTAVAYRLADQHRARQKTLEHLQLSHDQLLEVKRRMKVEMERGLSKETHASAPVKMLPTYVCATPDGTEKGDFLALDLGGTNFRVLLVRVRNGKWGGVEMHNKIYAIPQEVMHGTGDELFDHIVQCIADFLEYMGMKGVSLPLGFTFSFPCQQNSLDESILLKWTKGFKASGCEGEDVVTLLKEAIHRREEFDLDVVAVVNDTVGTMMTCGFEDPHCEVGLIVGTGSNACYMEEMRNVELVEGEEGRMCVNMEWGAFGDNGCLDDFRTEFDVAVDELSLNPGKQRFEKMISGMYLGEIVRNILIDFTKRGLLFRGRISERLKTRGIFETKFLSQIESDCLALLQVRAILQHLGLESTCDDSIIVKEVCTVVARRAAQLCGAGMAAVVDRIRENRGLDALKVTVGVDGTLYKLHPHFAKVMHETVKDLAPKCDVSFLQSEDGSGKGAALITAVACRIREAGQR", "experiment": "Inhibition of human HK2 transfected in Escherichia coli BL21 (DE) incubated for 10 mins"}, "MDA-MB-231 [7]": {"tested_on": "MDA-MB-231", "experiment": "Antiproliferative activity against human MDA-MB-231 cells assessed as inhibition of cell proliferation incubated for 4 days by CCK-8 assay", "assay_type": "functional, cell-based", "conditions": "MDA-MB-231, 96 h"}, "[8]": {"molecular_target": "T2, Hexokinase-2 (Homo sapiens) (UniProt P52789)", "T2 sequence (whole entry)": "T1 sequence (P52789 whole entry)", "experiment": "Binding affinity to human HK2 transfected in Escherichia coli BL21 (DE) assessed as HK2 stabilization at 4 uM at 37 to 55 degreeC incubated for 10 to 30 mins by CETSA", "conditions": "time 10-30 min"}, "[9]": {"experiment": "Selectivity ratio of IC50 for cytotoxicity against green monkey Vero cells to IC50 for antiproliferative activity against human LoVo cells", "assay_type": "toxicity, cell-based", "conditions": "Vero cells versus LoVo cells, read-out: Ratio IC50"}, "[10]": {"molecular_target": "T2, Hexokinase-2 (Homo sapiens)", "experiment": "Mixed inhibition of human HK2 transfected in Escherichia coli BL21 (DE) assessed as increase in Km with decrease in Vmax at 0.25 to 4 uM using glucose as substrate by Lineweaver-Burk plot analysis", "conditions": "dose 0.25-4 µM"}, "MDA-MB-231 [11]": {"tested_on": "MDA-MB-231", "experiment": "Induction of ROS generation in human MDA-MB-231 cells assessed as increase in green fluorescence at 1 uM incubated for 24 hrs by DCFH-DA staining based flow cytometric analysis (reference value: 62.3 %)", "assay_type": "functional"}, "LoVo [12]": {"tested_on": "LoVo", "experiment": "Antiproliferative activity against human LoVo cells assessed as inhibition of cell growth incubated for 48 hrs by CCK-8 assay", "assay_type": "functional, cell-based"}, "[13]": {"molecular_target": "T2, Hexokinase-2 (Homo sapiens)", "experiment": "Non-competitive inhibition of human HK2 transfected in Escherichia coli BL21 (DE) assessed as constant Km with decrease in Vmax at 0.25 to 4 uM using ATP as substrate by Lineweaver-Burk plot analysis", "conditions": "dose 0.25-4 µM"}, "MDA-MB-231 [14]": {"tested_on": "MDA-MB-231", "experiment": "Induction of apoptosis in human MDA-MB-231 cells assessed as decrease in Cyclin A level by Western blotting analysis", "assay_type": "functional, cell-based", "conditions": "dose 0.5-2 µM"}, "MDA-MB-231 [15]": {"tested_on": "MDA-MB-231", "experiment": "Induction of apoptosis in human MDA-MB-231 cells assessed as nuclear shrinkage at 0.5 to 2 uM incubated for 24 hrs by Hoechst 33342 staining based fluorescence microscopic analysis", "assay_type": "functional, cell-based", "conditions": "dose 0.5-2 µM"}, "MDA-MB-231 [16]": {"tested_on": "MDA-MB-231", "experiment": "Induction of apoptosis in human MDA-MB-231 cells assessed as increase in total apoptotic cells by annexin-V/PI double staining based flow cytometric analysis", "assay_type": "functional, cell-based", "conditions": "dose 0.5-2 µM"}, "BXPC-3": {"tested_on": "BXPC-3", "experiment": "Antiproliferative activity against human BXPC-3 cells assessed as inhibition of cell growth incubated for 48 hrs by CCK-8 assay", "assay_type": "functional, cell-based", "conditions": "BXPC-3, 48 h"}, "MDA-MB-231 [17]": {"tested_on": "MDA-MB-231", "experiment": "Induction of apoptosis in human MDA-MB-231 cells assessed as pyknotic bright nuclei at 0.5 to 2 uM incubated for 24 hrs by Hoechst 33342 staining based fluorescence microscopic analysis", "assay_type": "functional, cell-based", "conditions": "dose 0.5-2 µM"}, "MDA-MB-231 [18]": {"tested_on": "MDA-MB-231", "experiment": "Induction of apoptosis in human MDA-MB-231 cells assessed as decrease in Caspase 3 level by Western blotting analysis", "assay_type": "functional, cell-based", "conditions": "dose 0.5-2 µM"}, "MDA-MB-231 [19]": {"tested_on": "MDA-MB-231", "experiment": "Induction of apoptosis in human MDA-MB-231 cells assessed as decrease in HIF-1a level by Western blotting analysis", "assay_type": "functional, cell-based", "conditions": "dose 0.5-2 µM"}, "MDA-MB-231 [20]": {"tested_on": "MDA-MB-231", "experiment": "Antiproliferative activity against human MDA-MB-231 cells assessed as inhibition of cell proliferation incubated for 3 days by CCK-8 assay", "assay_type": "functional, cell-based", "conditions": "MDA-MB-231, 72 h"}, "[21]": {"experiment": "Cytotoxicity against green monkey Vero cells assessed as inhibition of cell growth incubated for 48 hrs by CCK-8 assay", "assay_type": "toxicity, cell-based", "conditions": "African green monkey (Chlorocebus sabaeus)"}}, "note": "The source made the active and inactive calls. No cut-off for these calls is given here.", "data": [{"smiles": "O=C(/C=C/c1cn(S(=O)(=O)c2ccc([N+](=O)[O-])cc2)c2ccc(N3CCOCC3)cc12)c1cccnc1", "values": [{"measurement": "IC50", "setting": "HCT-116", "result": 512, "unit": "nM"}, {"measurement": "Activity", "setting": "MDA-MB-231 [1]", "result": "Active"}, {"measurement": "IC50", "setting": "LoVo [2]", "result": 551, "unit": "nM"}, {"measurement": "Activity", "setting": "MDA-MB-231 [3]", "result": "Time-dependent-effect"}, {"measurement": "IC50", "setting": "ASPC1", "result": 1110, "unit": "nM"}, {"measurement": "Activity", "setting": "MDA-MB-231 [4]", "result": "Active"}, {"measurement": "Activity", "setting": "MDA-MB-231 [5]", "result": "Active"}, {"measurement": "IC50", "setting": "SW480", "result": 687, "unit": "nM"}, {"measurement": "Activity", "setting": "MDA-MB-231 [6]", "result": 88.4, "unit": "%"}, {"measurement": "IC50", "setting": "Hexokinase-2", "result": 1560, "unit": "nM"}, {"measurement": "IC50", "setting": "MDA-MB-231 [7]", "result": 938, "unit": "nM"}, {"measurement": "Activity", "setting": "[8]", "result": "Active"}, {"measurement": "selectivity ratio", "setting": "[9]", "result": 5}, {"measurement": "inhibition", "setting": "[10]", "result": "Active"}, {"measurement": "Activity", "setting": "MDA-MB-231 [11]", "result": 90.4, "unit": "%"}, {"measurement": "IC50", "setting": "LoVo [12]", "result": 446, "unit": "nM"}, {"measurement": "inhibition", "setting": "[13]", "result": "Active"}, {"measurement": "Activity", "setting": "MDA-MB-231 [14]", "result": "Dose-dependent-effect"}, {"measurement": "Activity", "setting": "MDA-MB-231 [15]", "result": "Active"}, {"measurement": "Activity", "setting": "MDA-MB-231 [16]", "result": "Dose-dependent-effect"}, {"measurement": "IC50", "setting": "BXPC-3", "result": 1270, "unit": "nM"}, {"measurement": "Activity", "setting": "MDA-MB-231 [17]", "result": "Active"}, {"measurement": "Activity", "setting": "MDA-MB-231 [18]", "result": "Dose-dependent-effect"}, {"measurement": "Activity", "setting": "MDA-MB-231 [19]", "result": "Dose-dependent-effect"}, {"measurement": "IC50", "setting": "MDA-MB-231 [20]", "result": 561, "unit": "nM"}, {"measurement": "IC50 at 48 h", "setting": "[21]", "result": 2320, "unit": "nM"}]}]}
